Reference: patent US10188634B2, “3-(3H-imidazo[4,5-C]pyridin-2-yl)-1 H-pyrazolo[4,3-B]pyridines and therapeutic uses thereof” (Samumed, LLC, priority 2015, dated 2019)

Experiments:
[1] = system: IL-6 in THP-1 cells; assay: Inhibition of IL-6 in LPS-stimulated THP-1 human monocyte cells (HTRF); type: cell-based; settings: IL-6 HTRF; for EC50: 500 ng/mL LPS, 22 hours; for inhibition at 10 µM: LPS, read-out: percent inhibition in brackets (given for EC50 >10 μM)
Method in brief: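 IL-6 was quantified by HTRF ratio after LPS (500 ng/mL, 22 h) stimulation of THP-1 monocytes pretreated 2 h with compound, 10-point 1:3 dilutions from 10 μM, 0.1% DMSO. Cells were held in 1% FBS for 24 h beforehand. Values normalised to DMSO; four-parameter EC50, or % inhibition at 10 μM above that.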

[2] = system: primary human mesenchymal stem cells (hMSCs); assay: Induction of chondrogenesis in primary human mesenchymal stem cells (hMSCs), nodule imaging with Rhodamine B / Nile Red; type: cell-based; settings: for Emax: hMSCs chondrogenesis, TGF-β3 (10 ng/mL) as positive control, read-out: Max. Activity as % TGF-β3 activity; for EC50: hMSCs, concentration required to induce 50% levels of chondrogenesis vs TGF-β3 positive control, read-out: Conc (nM) of 50% TGF-β3 activity
Method in brief: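 Passage 3-6 hMSCs cultured 6 days at 37° C in incomplete chondrogenic induction medium with compound (2700-10 nM, 96-well; 5000-2.2 nM, 384-well; 0.03% DMSO), TGF-β3 10 ng/mL as positive control. Fixed nodules stained with Rhodamine B/Nile Red, imaged at 531/625 nm; nodule area normalized to DMSO wells for EC50, maximum activity and dose at maximum.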

CN(C)c1cncc(-c2ccc3[nH]nc(-c4nc5c(-c6cccc(F)c6)cncc5[nH]4)c3n2)c1 [Compound 7, 5-(3-(7-(3-Fluorophenyl)-3H-imidazo[4,5-c]pyridin-2-yl)-1H-pyrazolo[4,3-b]pyridin-5-yl)-N,N-dimethylpyridin-3-amine]
EC50 [1]: 341 nM
Emax [2]: 154%
EC50 [2]: 10 nM

CN(C)Cc1cncc(-c2ccc3[nH]nc(-c4nc5c(-c6cccc(F)c6)cncc5[nH]4)c3n2)c1 [Compound 13, 1-(5-(3-(7-(3-Fluorophenyl)-3H-imidazo[4,5-c]pyridin-2-yl)-1H-pyrazolo[4,3-b]pyridin-5-yl)pyridin-3-yl)-N,N-dimethylmethanamine]
EC50 [1]: 1540 nM
Emax [2]: 17%

O=C(Nc1cncc(-c2ccc3[nH]nc(-c4nc5c(-c6cccc(F)c6)cncc5[nH]4)c3n2)c1)C1CC1 [Compound 20, N-(5-(3-(7-(3-Fluorophenyl)-3H-imidazo[4,5-c]pyridin-2-yl)-1H-pyrazolo[4,3-b]pyridin-5-yl)pyridin-3-yl)cyclopropanecarboxamide]
EC50 [1]: > 10000 nM
inhibition at 10 µM [1]: 19.6%

Fc1cccc(-c2cncc3[nH]c(-c4n[nH]c5ccc(-c6cncc(CN7CCC(F)(F)C7)c6)nc45)nc23)c1 [Compound 26, 5-(5-((3,3-Difluoropyrrolidin-1-yl)methyl)pyridin-3-yl)-3-(7-(3-fluorophenyl)-3H-imidazo[4,5-c]pyridin-2-yl)-1H-pyrazolo[4,3-b]pyridine]
EC50 [1]: > 10000 nM
inhibition at 10 µM [1]: 21%
Emax [2]: 47%

CC(C)(C)C(=O)Nc1cncc(-c2ccc3[nH]nc(-c4nc5c(-c6ccc(F)cc6)cncc5[nH]4)c3n2)c1 [Compound 36, N-(5-(3-(7-(4-Fluorophenyl)-3H-imidazo[4,5-c]pyridin-2-yl)-1H-pyrazolo[4,3-b]pyridin-5-yl)pyridin-3-yl)pivalamide]
EC50 [1]: > 10000 nM
inhibition at 10 µM [1]: 35.9%
Emax [2]: 42%

Fc1ccc(-c2cncc3[nH]c(-c4n[nH]c5ccc(-c6cncc(CN7CCCC7)c6)nc45)nc23)cc1 [Compound 42, 3-(7-(4-Fluorophenyl)-3H-imidazo[4,5-c]pyrid-2-yl)-5-(5-(pyrrolidin-1-ylmethyl)pyridin-3-yl)-1H-pyrazolo[4,3-b]pyridine]
EC50 [1]: > 10000 nM
inhibition at 10 µM [1]: 42%
Emax [2]: 15%

Fc1ccccc1-c1cncc2[nH]c(-c3n[nH]c4ccc(-c5ccccn5)nc34)nc12 [Compound 84, 3-(7-(2-Fluorophenyl)-3H-imidazo[4,5-c]pyridin-2-yl)-5-(pyridin-2-yl)-1H-pyrazolo[4,3-b]pyridine]
EC50 [1]: > 10000 nM
inhibition at 10 µM [1]: 46.8%

CC(C)Nc1cncc(-c2ccc3[nH]nc(-c4nc5c(-c6cccnc6)cncc5[nH]4)c3n2)c1 [Compound 96, N-Isopropyl-5-(3-(7-(pyridin-3-yl)-3H-imidazo[4,5-c]pyridin-2-yl)-1H-pyrazolo[4,3-b]pyridin-5-yl)pyridin-3-amine]
EC50 [1]: 1750 nM
Emax [2]: 65%
EC50 [2]: 30 nM

CN(C)c1cncc(-c2ccc3[nH]nc(-c4nc5c(N6CCCCC6)cncc5[nH]4)c3n2)c1 [Compound 175, N,N-dimethyl-5-(3-(7-(piperidin-1-yl)-3H-imidazo[4,5-c]pyridin-2-yl)-1H-pyrazolo[4,3-b]pyridin-5-yl)pyridin-3-amine]
EC50 [1]: 122 nM
Emax [2]: 67%
EC50 [2]: 100 nM

Cc1ccncc1-c1ccc2[nH]nc(-c3nc4c(-c5ccsc5)cncc4[nH]3)c2n1 [Compound 257, 5-(4-Methylpyridin-3-yl)-3-(7-(thiophen-3-yl)-3H-imidazo[4,5-c]pyridin-2-yl)-1H-pyrazolo[4,3-b]pyridine]
EC50 [1]: > 10000 nM
inhibition at 10 µM [1]: 11.5%
Emax [2]: 24%

CCCC(=O)Nc1cncc(-c2ccc3[nH]nc(-c4nc5c(-c6ccsc6)cncc5[nH]4)c3n2)c1 [Compound 269, N-(5-(3-(7-(Thiophen-3-yl)-3H-imidazo[4,5-c]pyridin-2-yl)-1H-pyrazolo[4,3-b]pyridin-5-yl)pyridin-3-yl)butyramide]
EC50 [1]: > 10000 nM
inhibition at 10 µM [1]: 45.9%
Emax [2]: 58%
EC50 [2]: 21 nM

FC1(F)CCN(Cc2cncc(-c3ccc4[nH]nc(-c5nc6c(-c7ccsc7)cncc6[nH]5)c4n3)c2)C1 [Compound 278, 5-(5-((3,3-difluoropyrrolidin-1-yl)methyl)pyridin-3-yl)-3-(7-(thiophen-3-yl)-3H-imidazo[4,5-c]pyridin-2-yl)-1H-pyrazolo[4,3-b]pyridine]
EC50 [1]: 5790 nM
Emax [2]: 67%
EC50 [2]: 10 nM

CC(C)Nc1cncc(-c2ccc3[nH]nc(-c4nc5c(-c6ccoc6)cncc5[nH]4)c3n2)c1 [Compound 292, 5-(3-(7-(Furan-3-yl)-3H-imidazo[4,5-c]pyridin-2-yl)-1H-pyrazolo[4,3-b]pyridin-5-yl)-N-isopropylpyridin-3-amine]
EC50 [1]: 2560 nM
Emax [2]: 75%
EC50 [2]: 30 nM

c1cc(-c2cncc3[nH]c(-c4n[nH]c5ccc(-c6cncc(CNCC7CCCC7)c6)nc45)nc23)co1 [Compound 305, 1-Cyclopentyl-N-((5-(3-(7-(furan-3-yl)-3H-imidazo[4,5-c]pyridin-2-yl)-1H-pyrazolo[4,3-b]pyridin-5-yl)pyridin-3-yl)methyl)methanamine]
EC50 [1]: > 10000 nM
inhibition at 10 µM [1]: 24.5%

CN(C)c1cncc(-c2ccc3[nH]nc(-c4nc5c(-c6cccs6)cncc5[nH]4)c3n2)c1 [Compound 315, N,N-Dimethyl-5-(3-(7-(thiophen-2-yl)-3H-imidazo[4,5-c]pyridin-2-yl)-1H-pyrazolo[4,3-b]pyridin-5-yl)pyridin-3-amine]
EC50 [1]: 31 nM
Emax [2]: 66%
EC50 [2]: 10 nM

Cc1ccc(-c2cncc3[nH]c(-c4n[nH]c5ccc(-c6cncc(N)c6)nc45)nc23)s1 [Compound 367, 5-(3-(7-(5-Methylthiophen-2-yl)-3H-imidazo[4,5-c]pyridin-2-yl)-1H-pyrazolo[4,3-b]pyridin-5-yl)pyridin-3-amine]
EC50 [1]: 125 nM
Emax [2]: 79%
EC50 [2]: 30 nM

CC(C)Nc1cncc(-c2ccc3[nH]nc(-c4nc5c(-c6cc(F)cc(NCCN(C)C)c6)cncc5[nH]4)c3n2)c1 [Compound 432, N^1-(3-Fluoro-5-(2-(5-(5-(isopropylamino)pyridin-3-yl)-1H-pyrazolo[4,3-b]pyridin-3-yl)-3H-imidazo[4,5-c]pyridin-7-yl)phenyl)-N^2,N^2-dimethylethane-1,2-diamine]
EC50 [1]: 2290 nM
Emax [2]: 97%
EC50 [2]: 300 nM

O=C(CC1CCNCC1)Nc1cncc(-c2ccc3[nH]nc(-c4nc5c(-c6ccccn6)cncc5[nH]4)c3n2)c1 [Compound 565, 2-(Piperidin-4-yl)-N-(5-(3-(7-(pyridin-2-yl)-3H-imidazo[4,5-c]pyridin-2-yl)-1H-pyrazolo[4,3-b]pyridin-5-yl)pyridin-3-yl)acetamide]
EC50 [1]: > 10000 nM
inhibition at 10 µM [1]: 34.7%

c1ncc(-c2ccc3[nH]nc(-c4nc5c(N6CCCCC6)cncc5[nH]4)c3n2)cc1OCCN1CCCC1 [Compound 582, 3-(7-(Piperidin-1-yl)-3H-imidazo[4,5-c]pyridin-2-yl)-5-(5-(2-(pyrrolidin-1-yl)ethoxy)pyridin-3-yl)-1H-pyrazolo[4,3-b]pyridine]
EC50 [1]: 1630 nM

Oc1cncc(-c2ccc3[nH]nc(-c4nc5c(N6CCCCC6)cncc5[nH]4)c3n2)c1 [Compound 585, 5-(3-(7-(Piperidin-1-yl)-3H-imidazo[4,5-c]pyridin-2-yl)-1H-pyrazolo[4,3-b]pyridin-5-yl)pyridin-3-ol]
EC50 [1]: 1380 nM

Cc1cn(-c2cncc3[nH]c(-c4n[nH]c5ccc(C6=CCNCC6)nc45)nc23)cn1 [Compound 590, 3-(7-(4-Methyl-1H-imidazol-1-yl)-3H-imidazo[4,5-c]pyridin-2-yl)-5-(1,2,3,6-tetrahydropyridin-4-yl)-1H-pyrazolo[4,3-b]pyridine]
EC50 [1]: > 10000 nM
inhibition at 10 µM [1]: 11.5%

Cc1cn(-c2cncc3[nH]c(-c4n[nH]c5ccc(-c6cncc(OCCN(C)C)c6)nc45)nc23)cn1 [Compound 599, N,N-Dimethyl-2-((5-(3-(7-(4-methyl-1H-imidazol-1-yl)-3H-imidazo[4,5-c]pyridin-2-yl)-1H-pyrazolo[4,3-b]pyridin-5-yl)pyridin-3-yl)oxy)ethan-1-amine]
EC50 [1]: > 10000 nM
inhibition at 10 µM [1]: 22.5%

CN1CCN(c2cncc3[nH]c(-c4n[nH]c5ccc(-c6cnccn6)nc45)nc23)CC1 [Compound 620, 3-(7-(4-Methylpiperazin-1-yl)-3H-imidazo[4,5-c]pyridin-2-yl)-5-(pyrazin-2-yl)-1H-pyrazolo[4,3-b]pyridine]
EC50 [1]: > 10000 nM
inhibition at 10 µM [1]: 30.6%

O=C(CC1CCNCC1)Nc1cncc(-c2ccc3[nH]nc(-c4nc5c(-c6ccsc6)cncc5[nH]4)c3n2)c1 [Compound 629, 2-(Piperidin-4-yl)-N-(5-(3-(7-(thiophen-3-yl)-3H-imidazo[4,5-c]pyridin-2-yl)-1H-pyrazolo[4,3-b]pyridin-5-yl)pyridin-3-yl)acetamide]
EC50 [1]: > 10000 nM
inhibition at 10 µM [1]: 45.5%

Cc1ncc(-c2ccc3[nH]nc(-c4nc5c(-c6ccoc6)cncc5[nH]4)c3n2)n1C [Compound 641, 5-(1,2-Dimethyl-1H-imidazol-5-yl)-3-(7-(furan-3-yl)-3H-imidazo[4,5-c]pyridin-2-yl)-1H-pyrazolo[4,3-b]pyridine]
EC50 [1]: > 10000 nM
inhibition at 10 µM [1]: 8.9%
